From patent US20090111825A1, “THIOPHENE 1,2,4-TRIAZOLE DERIVATIVES AS MODULATORS OF MGLUR5” (priority 2007, published 2009)

Columns and labels:
human mGluR5d = target: T1, human mGluR5d (Homo sapiens, UniProt P41594); assay: FLIPR assay, mobilization of intracellular calcium in cells expressing human mGluR5d; format: cell-based; conditions: antagonism of agonist response, read-out: FLIPR hmGluR5d
T1 construct: expressed in transfected cells
From the text: The properties of the compounds of the invention can be analyzed using standard assays for pharmacological activity. Examples of glutamate receptor assays are well known in the art as described in for example Aramori et al., Neuron 8:757 (1992), Tanabe et al., Neuron 8:169 (1992), Miller et al., J. Neuroscience 15: 6103 (1995), Balazs, et al., J. Neurochemistry 69:151 (1997). The methodology described in these publications is incorporated herein by reference. Conveniently, the compounds of the invention can be studied by means of an assay (FLIPR) that measures the mobilization of intracellular calcium, [Ca^2+]i in cells expressing mGluR5 or another assay (IP3) that measures inositol phosphate turnover.
Cells expressing human mGluR5d as described in WO97/05252 cultured in a mixture of high glucose DMEM with Glutamax (31966-021)(500 mL), 10% dialyzed fetal bovine serum (Hyclone #SH30079.03)(56 mL), 200 μg/mL Hygromycin B (Invitrogen 45-0430, 50 mg/mL)(2.2 mL), 200 μg/mL Zeocin (Invitrogen #R250-01; 100 mg/mL)(1.1 mL) are seeded at a density of 100,000 cells per well on collagen coated clear bottom 96-well plates with black sides and cells were allowed to adhere over night before experiments. All assays are done in a buffer containing 146 mM NaCl, 5 mM KCl, 1 mM MgCl2, 1 mM CaCl2, 20 mM HEPES, 1 mg/mL glucose and 1 mg/mL BSA Fraction IV (pH 7.4). Cell cultures in the 96-well plates are loaded for 60 minutes in the above mentioned buffer containing 6 μM of the acetoxymethyl ester form of the fluorescent calcium indicator fluo-3 (Molecular Probes, Eugene, Oreg.) in 0.025% pluronic acid (a proprietary, non-ionic surfactant polyol—CAS Number 9003-11-6). Following the loading period the fluo-3 buffer is removed and replaced with fresh assay buffer. FLIPR experiments are done using a laser setting of 0.700 W and a 0.4 second CCD camera shutter speed with excitation and emission wavelengths of 488 nm and 562 nm, respectively. Each experiment is initiated with 160 μl of buffer present in each well of the cell plate. A 40 μl addition from the antagonist plate was followed by a 50 μL addition from the agonist plate. A 30 minutes, in dark at 25° C., interval separates the antagonist and agonist additions. The fluorescence signal is sampled 50 times at 1-second intervals followed by 3 samples at 5-second intervals immediately after each of the two additions. Responses are measured as the difference between the peak heights of the response to agonist) less the background fluorescence within the sample period. IC50 determinations are made using a linear least squares fitting program.

[1] = Determination of brain to plasma ratio in rat; format: in vivo; conditions: brain and plasma, female Sprague Dawley rats, drug in brain over drug in plasma, read-out: Brain/Plasma Ratio of compound in Rat
Method: Brain to plasma ratios are estimated in female Sprague Dawley rats. The compound is dissolved in water or another appropriate vehicle. For determination of brain to plasma ratio the compound is administrated as a subcutaneous, or an intravenous bolus injection, or an intravenous infusion, or an oral administration. At a predetermined time point after the administration a blood sample is taken with cardiac puncture. The rat is terminated by cutting the heart open, and the brain is immediately retained. The blood samples are collected in heparinized tubes and centrifuged within 30 minutes, in order to separate the plasma from the blood cells. The plasma is transferred to 96-well plates and stored at −20° C. until analysis. The brains are divided in half, and each half is placed in a pre-tarred tube and stored at −20° C. until analysis. Prior to the analysis, the brain samples are thawed and 3 mL/g brain tissue of distilled water is added to the tubes. The brain samples are sonicated in an ice bath until the samples are homogenized. Both brain and plasma samples are precipitated with acetonitrile. After centrifugation, the supernatant is diluted with 0.2% formic acid. Analysis is performed on a short reversed-phase HPLC column with rapid gradient elution and MSMS detection using a triple quadrupole instrument with electrospray ionization and Selected Reaction Monitoring (SRM) acquisition. Liquid-liquid extraction may be used as an alternative sample clean-up. The samples are extracted, by shaking, to an organic solvent after addition of a suitable buffer. An aliquot of the organic layer is transferred to a new vial and evaporated to dryness under a stream of nitrogen. After reconstitution of the residuals the samples are ready for injection onto the HPLC column.

T1 sequence (P41594 21-942 isoform P41594-3 limits assumed): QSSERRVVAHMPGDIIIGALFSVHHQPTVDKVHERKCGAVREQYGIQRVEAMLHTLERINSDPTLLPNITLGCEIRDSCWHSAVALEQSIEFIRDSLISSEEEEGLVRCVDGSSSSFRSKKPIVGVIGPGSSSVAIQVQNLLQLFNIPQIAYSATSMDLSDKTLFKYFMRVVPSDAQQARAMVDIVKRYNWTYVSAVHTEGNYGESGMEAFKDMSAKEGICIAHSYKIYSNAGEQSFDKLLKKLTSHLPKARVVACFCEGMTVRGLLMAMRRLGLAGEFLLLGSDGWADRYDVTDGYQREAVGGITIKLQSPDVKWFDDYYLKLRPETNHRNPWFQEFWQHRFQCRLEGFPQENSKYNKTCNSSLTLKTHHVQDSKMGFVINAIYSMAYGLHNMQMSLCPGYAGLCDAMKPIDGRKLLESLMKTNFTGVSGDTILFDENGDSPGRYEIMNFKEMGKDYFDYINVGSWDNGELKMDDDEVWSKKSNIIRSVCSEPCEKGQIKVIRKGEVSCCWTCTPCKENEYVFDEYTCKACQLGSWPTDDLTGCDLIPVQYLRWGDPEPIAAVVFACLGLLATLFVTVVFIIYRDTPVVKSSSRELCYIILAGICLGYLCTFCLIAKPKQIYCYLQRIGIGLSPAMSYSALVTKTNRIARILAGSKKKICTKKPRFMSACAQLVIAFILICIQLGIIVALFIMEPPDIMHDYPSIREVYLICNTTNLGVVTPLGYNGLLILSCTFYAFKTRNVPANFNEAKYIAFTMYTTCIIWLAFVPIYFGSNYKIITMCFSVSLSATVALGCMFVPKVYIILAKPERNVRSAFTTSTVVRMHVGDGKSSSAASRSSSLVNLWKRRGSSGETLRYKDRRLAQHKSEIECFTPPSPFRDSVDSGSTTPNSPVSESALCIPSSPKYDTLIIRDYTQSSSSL

IC50 (human mGluR5d)	Kp [1]	Structure (SMILES)
34 nM	0.06	Cn1c(-c2cn[nH]c(=O)c2)nnc1N1[C@@H](c2cc(-c3csc(Cl)c3)on2)C[C@H]2C[C@H]21 [Example 10.1, 5-(5-{(1R,3R,5R)-3-[5-(5-Chloro-3-thienyl)isoxazol-3-yl]-2-azabicyclo[3.1.0]hex-2-yl}-4-methyl-4H-1,2,4-triazol-3-yl)pyridazin-3(2H)-one]
35 nM	< 0.01	Cn1c(-c2cc[nH]c(=O)c2)nnc1N1[C@@H](c2cc(-c3csc(Cl)c3)on2)C[C@H]2C[C@H]21 [Example 10.2, 4-(5-{(1R,3R,5R)-3-[5-(5-Chloro-3-thienyl)isoxazol-3-yl]-2-azabicyclo[3.1.0]hex-2-yl}-4-methyl-4H-1,2,4-triazol-3-yl)pyridin-2(1H)-one]
61 nM	0.16	Cn1c(-c2cnn(C)c(=O)c2)nnc1N1CCC[C@@H]1c1cc(-c2csc(Cl)c2)on1 [Example 10.3, 5-(5-{(2R)-2-[5-(5-Chloro-3-thienyl)isoxazol-3-yl]pyrrolidin-1-yl}-4-methyl-4H-1,2,4-triazol-3-yl)-2-methylpyridazin-3(2H)-one]
39 nM	< 0.01	Cn1c(-c2cn[nH]c(=O)c2)nnc1N1CCC[C@@H]1c1cc(-c2csc(Cl)c2)on1 [Example 10.4, 5-(5-{(2R)-2-[5-(5-Chloro-3-thienyl)isoxazol-3-yl]pyrrolidin-1-yl}-4-methyl-4H-1,2,4-triazol-3-yl)pyridazin-3(2H)-one]
44 nM	0.03	Cn1c(-c2ccn(C)c(=O)c2)nnc1N1CCC[C@@H]1c1cc(-c2csc(Cl)c2)on1 [Example 10.5, 4-(5-{(2R)-2-[5-(5-Chloro-3-thienyl)isoxazol-3-yl]pyrrolidin-1-yl}-4-methyl-4H-1,2,4-triazol-3-yl)-1-methylpyridin-2(1H)-one]
35 nM	< 0.01	Cn1c(-c2cc[nH]c(=O)c2)nnc1N1CCC[C@@H]1c1cc(-c2csc(Cl)c2)on1 [Example 10.6, 4-(5-{(2R)-2-[5-(5-Chloro-3-thienyl)isoxazol-3-yl]pyrrolidin-1-yl}-4-methyl-4H-1,2,4-triazol-3-yl)pyridin-2(1H)-one]
